Source: patent US12667608B2 (priority 2020, dated 2026)
Converted amounts (≈) assume the structure as drawn.

Assays:
Assay in all cases: microbe, parasite or virus in culture
Assay type in all cases: cell-based
M. bovis BCG = conditions: Mycobacterium tuberculosis variant bovis BCG, 672 h
Mtb H37Rv = conditions: Mycobacterium tuberculosis, 672 h
[1] = tested on: Recombinant drug-resistant BCG Strain; conditions: Mycobacterium tuberculosis variant bovis BCG, 672 h

SMILES | MIC (M. bovis BCG) [µg/mL] | MIC (Mtb H37Rv) [µg/mL] | MIC [1] [µg/mL]
NNC(=O)c1ccncc1 [INH, isoniazid] | 0.1 (≈ 0.729 µM) | 0.03 to 0.06 (≈ 0.219 to 0.438 µM) | 0.06 (≈ 0.438 µM)
CC(=O)NC[C@H]1CN(c2ccc(N3CCOCC3)c(F)c2)C(=O)O1 [LZD, linezolid] | 0.125 to 0.5 (≈ 0.371 to 1.48 µM) | 0.25 (≈ 0.741 µM) | 0.03 (≈ 0.0889 µM)
Nc1ccc(C(=O)O)c(O)c1 [PAS, para-aminosalicylic acid] | 0.25 (≈ 1.63 µM) | 0.3 to 1 (≈ 1.96 to 6.53 µM) | 0.25 (≈ 1.63 µM)
NCC[C@H](O)C(=O)N[C@@H]1C[C@H](N)[C@@H](O[C@H]2O[C@H](CN)[C@@H](O)[C@H](O)[C@H]2O)[C@H](O)[C@H]1O[C@H]1O[C@H](CO)[C@@H](O)[C@H](N)[C@H]1O [AMK, amikacin] | 0.5 (≈ 0.854 µM) | 0.5 to 1 (≈ 0.854 to 1.71 µM) | 5 (≈ 8.54 µM)
COc1c(N2C[C@@H]3CCCN[C@@H]3C2)c(F)cc2c(=O)c(C(=O)O)cn(C3CC3)c12 [MFX, moxifloxacin] | 0.5 (≈ 1.25 µM) | 0.25 to 0.5 (≈ 0.623 to 1.25 µM) | 4 (≈ 9.96 µM)
COc1nc2ccc(Br)cc2cc1[C@@H](c1ccccc1)[C@@](O)(CCN(C)C)c1cccc2ccccc12 [TMC 207, bedaquiline] | 0.03 (≈ 0.054 µM) | 0.03 to 0.12 (≈ 0.054 to 0.216 µM) | 0.03 (≈ 0.054 µM)
CO[C@H]1/C=C/O[C@@]2(C)Oc3c(C)c(O)c4c(O)c(c(/C=N/N5CCN(C)CC5)c(O)c4c3C2=O)NC(=O)/C(C)=C\C=C\[C@H](C)[C@H](O)[C@@H](C)[C@@H](O)[C@@H](C)[C@H](OC(C)=O)[C@@H]1C [RIF, rifampicin] | 0.032 (≈ 0.0389 µM) | 0.25 (≈ 0.304 µM) | 0.5 (≈ 0.608 µM)
C[C@H]1COc2c(N3CCN(C)CC3)c(F)cc3c(=O)c(C(=O)O)cn1c23 [LFX, levofloxacin] | 0.5 (≈ 1.38 µM) | 0.5 (≈ 1.38 µM) | 4 (≈ 11.1 µM)
CC[C@@H](CO)NCCN[C@@H](CC)CO [EMB, ethambutol] | 0.5 (≈ 2.45 µM) | 0.5 (≈ 2.45 µM) | 5 (≈ 24.5 µM)
CCCc1cc(C(N)=S)ccn1 [PRO, prothionamide] | 0.25 (≈ 1.39 µM) | 0.5 (≈ 2.77 µM) | 64 (≈ 355 µM)
CC(C)/N=c1\cc2n(-c3ccc(Cl)cc3)c3ccccc3nc-2cc1Nc1ccc(Cl)cc1 [CLA, clofazimine] | 0.25 (≈ 0.528 µM) | 8 (≈ 16.9 µM) | 0.5 (≈ 1.06 µM)
[H]/N=C(/N)N[C@H]1[C@H](O)[C@@H](O)[C@H](O[C@@H]2O[C@@H](C)[C@](O)(C=O)[C@H]2O[C@@H]2O[C@@H](CO)[C@H](O)[C@@H](O)[C@@H]2NC)[C@@H](N/C(N)=N\[H])[C@@H]1O [STR, streptomycin] | 0.25 (≈ 0.43 µM) | 1 (≈ 1.72 µM) | 64 (≈ 110 µM)
O=[N+]([O-])c1cn2c(n1)OC[C@@H](OCc1ccc(OC(F)(F)F)cc1)C2 [PA-824, Pretomanid] | 0.25 (≈ 0.696 µM) | 0.06 to 0.125 (≈ 0.167 to 0.348 µM) | 0.25 (≈ 0.696 µM)
